Test results as given in US11382328B2, “Rapid drug discovery methods for pathogen inactivation” (priority 2019, dated 2022).
Counter-ions that a name gives are not always drawn.

Test system: E. coli strain W3110
Assay: Synergy assays: Biolog chemical sensitivity panels with Group IB metal, coefficient of drug interaction (CDI) from relative growth
Assay type: cell-based
Settings: for CDI (coefficient of drug interaction), gold + biocide: Gold (μM); for CDI (coefficient of drug interaction), copper mixed with biocide: Copper (mM) section
[1] = Copper (mM), 1st of 3 copper concentrations (head line not shown), biocide concentration 3 of 4, E. coli
[2] = Copper (mM), 1st of 3 copper concentrations (head line not shown), biocide concentration 4 of 4, E. coli
[3] = Copper (mM), 2nd of 3 copper concentrations (head line not shown), biocide concentration 3 of 4, E. coli
[4] = Copper (mM), 2nd of 3 copper concentrations (head line not shown), biocide concentration 4 of 4, E. coli
[5] = Copper (mM), 3rd of 3 copper concentrations (head line not shown), biocide concentration 3 of 4, E. coli
[6] = Copper (mM), 3rd of 3 copper concentrations (head line not shown), biocide concentration 4 of 4, E. coli
[7] = first of 3 gold concentrations, biocide concentration 4 of 4
[8] = second of 3 gold concentrations, biocide concentration 4 of 4
[9] = third of 3 gold concentrations, biocide concentration 4 of 4
[10] = Silver 0.5 μM, biocide concentration 3 of 4
[11] = Silver 0.5 μM, biocide concentration 4 of 4
[12] = Silver 1.0 μM, biocide concentration 3 of 4
[13] = Silver 1.0 μM, biocide concentration 4 of 4
[14] = Silver 5.0 μM, biocide concentration 3 of 4
[15] = Silver 5.0 μM, biocide concentration 4 of 4
[16] = Gold 50 μM, biocide concentration 4 of 4, E. coli
[17] = 1st of 3 copper concentrations (value not shown), 3rd of four biocide concentrations
[18] = 1st of 3 copper concentrations (value not shown), 4th of four biocide concentrations
[19] = 2nd of 3 copper concentrations (value not shown), 3rd of four biocide concentrations
[20] = 2nd of 3 copper concentrations (value not shown), 4th of four biocide concentrations
[21] = 3rd of 3 copper concentrations (value not shown), 3rd of four biocide concentrations
[22] = 3rd of 3 copper concentrations (value not shown), 4th of four biocide concentrations
[23] = Gold section of Table 5, first of three gold concentrations (μM, value not given), biocide concentration 3 of 4
[24] = Gold section of Table 5, first of three gold concentrations (μM, value not given), biocide concentration 4 of 4
[25] = Gold section of Table 5, second of three gold concentrations (μM, value not given), biocide concentration 3 of 4
[26] = Gold section of Table 5, second of three gold concentrations (μM, value not given), biocide concentration 4 of 4
[27] = Gold section of Table 5, third of three gold concentrations (μM, value not given), biocide concentration 3 of 4
[28] = Gold section of Table 5, third of three gold concentrations (μM, value not given), biocide concentration 4 of 4
[29] = Silver 0.5 μM, 3rd of four biocide concentrations, E. coli
[30] = Silver 0.5 μM, 4th of four biocide concentrations, E. coli
[31] = Silver 1.0 μM, 3rd of four biocide concentrations, E. coli
[32] = Silver 1.0 μM, 4th of four biocide concentrations, E. coli
[33] = Silver 5.0 μM, 3rd of four biocide concentrations, E. coli
[34] = Silver 5.0 μM, 4th of four biocide concentrations, E. coli

c1ccc(-c2nn(-c3ccccc3)[n+](-c3cccc4ccccc34)n2)cc1 [Tetrazolium violet]
Tox: CDI (coefficient of drug interaction) [1] | CDI (coefficient of drug interaction) [2] | CDI (coefficient of drug interaction) [3] | CDI (coefficient of drug interaction) [4] | CDI (coefficient of drug interaction) [5] | CDI (coefficient of drug interaction) [6] | CDI (coefficient of drug interaction), gold + biocide (first of 3 gold concentrations, biocide concentration 3 of 4) | CDI (coefficient of drug interaction), gold + biocide [7] | CDI (coefficient of drug interaction), gold + biocide (second of 3 gold concentrations, biocide concentration 3 of 4) | CDI (coefficient of drug interaction), gold + biocide [8] | CDI (coefficient of drug interaction), gold + biocide (third of 3 gold concentrations, biocide concentration 3 of 4) | CDI (coefficient of drug interaction), gold + biocide [9] | CDI [10] | CDI [11] | CDI [12] | CDI [13] | CDI [14] | CDI [15]

O=c1ccc2ccccc2o1 [coumarin]
Tox: CDI (coefficient of drug interaction) [16]

CCCCCCCCCCCC[N+](C)(C)C.[Br-] [Dodecyltrimethyl NH4^+ Br^−]
0.94: CDI (coefficient of drug interaction) (Gold section of Table 5, second of three gold concentrations (μM, value not given), biocide concentration 2 of 4)
1.05: CDI (coefficient of drug interaction) [27]
0.73: CDI (coefficient of drug interaction), copper mixed with biocide (3rd of 3 copper concentrations (value not shown), 2nd of four biocide concentrations)
0.77: CDI (coefficient of drug interaction), copper mixed with biocide (3rd of 3 copper concentrations (value not shown), 1st of four biocide concentrations)
1.02: CDI (coefficient of drug interaction), copper mixed with biocide (2nd of 3 copper concentrations (value not shown), 1st of four biocide concentrations) | CDI (coefficient of drug interaction) (Gold section of Table 5, third of three gold concentrations (μM, value not given), biocide concentration 1 of 4)
0.96: CDI (coefficient of drug interaction) (Gold section of Table 5, first of three gold concentrations (μM, value not given), biocide concentration 1 of 4) | CDI (coefficient of drug interaction) (Gold section of Table 5, second of three gold concentrations (μM, value not given), biocide concentration 1 of 4)
1.20: CDI (coefficient of drug interaction), copper mixed with biocide (1st of 3 copper concentrations (value not shown), 1st of four biocide concentrations)
1.04: CDI (coefficient of drug interaction), copper mixed with biocide (2nd of 3 copper concentrations (value not shown), 2nd of four biocide concentrations) | CDI (coefficient of drug interaction), silver + biocide (Silver 1.0 μM, 2nd of four biocide concentrations, E. coli)
1.63: CDI (coefficient of drug interaction), copper mixed with biocide [21]
1.00: CDI (coefficient of drug interaction) (Gold section of Table 5, first of three gold concentrations (μM, value not given), biocide concentration 2 of 4) | CDI (coefficient of drug interaction), silver + biocide (Silver 1.0 μM, 1st of four biocide concentrations, E. coli)
0.95: CDI (coefficient of drug interaction) [23]
0.63: CDI (coefficient of drug interaction), silver + biocide (Silver 0.5 μM, 1st of four biocide concentrations, E. coli)
1.51: CDI (coefficient of drug interaction), copper mixed with biocide [17]
1.14: CDI (coefficient of drug interaction) (Gold section of Table 5, third of three gold concentrations (μM, value not given), biocide concentration 2 of 4)
1.11: CDI (coefficient of drug interaction) [25]
0.47: CDI (coefficient of drug interaction), silver + biocide (Silver 5.0 μM, 2nd of four biocide concentrations, E. coli)
Tox: CDI (coefficient of drug interaction), copper mixed with biocide [18] | CDI (coefficient of drug interaction), copper mixed with biocide [19] | CDI (coefficient of drug interaction), copper mixed with biocide [20] | CDI (coefficient of drug interaction), copper mixed with biocide [22] | CDI (coefficient of drug interaction) [24] | CDI (coefficient of drug interaction) [26] | CDI (coefficient of drug interaction) [28] | CDI (coefficient of drug interaction), silver + biocide [29] | CDI (coefficient of drug interaction), silver + biocide [30] | CDI (coefficient of drug interaction), silver + biocide [31] | CDI (coefficient of drug interaction), silver + biocide [32] | CDI (coefficient of drug interaction), silver + biocide [33] | CDI (coefficient of drug interaction), silver + biocide [34]
0.91: CDI (coefficient of drug interaction), silver + biocide (Silver 0.5 μM, 2nd of four biocide concentrations, E. coli)
0.59: CDI (coefficient of drug interaction), silver + biocide (Silver 5.0 μM, 1st of four biocide concentrations, E. coli)

O=c1cc(O)c2ccccc2o1 [4-Hydroxy-coumarin]
Tox: CDI (coefficient of drug interaction), copper mixed with biocide [18] | CDI (coefficient of drug interaction), copper mixed with biocide [22] | CDI (coefficient of drug interaction) (Gold 5 μM, biocide concentration 4 of 4, E. coli) | CDI (coefficient of drug interaction) (Gold 25 μM, biocide concentration 4 of 4, E. coli) | CDI (coefficient of drug interaction), silver + biocide [30] | CDI (coefficient of drug interaction), silver + biocide [32] | CDI (coefficient of drug interaction), silver + biocide [34] | CDI (coefficient of drug interaction) ([…], biocide concentration 4 of 4, E. coli)

CCCCC(CC)CNC(=N)NC(=N)NCCCCCCNC(=N)NC(=N)NCC(CC)CCCC (stereo not shown) [alexidine]
Tox: CDI (coefficient of drug interaction), copper mixed with biocide [17] | CDI (coefficient of drug interaction), copper mixed with biocide [18] | CDI (coefficient of drug interaction), copper mixed with biocide [19] | CDI (coefficient of drug interaction), copper mixed with biocide [20] | CDI (coefficient of drug interaction), copper mixed with biocide [21] | CDI (coefficient of drug interaction), copper mixed with biocide [22] | CDI (coefficient of drug interaction) [23] | CDI (coefficient of drug interaction) [24] | CDI (coefficient of drug interaction) [25] | CDI (coefficient of drug interaction) [26] | CDI (coefficient of drug interaction) [27] | CDI (coefficient of drug interaction) [28] | CDI (coefficient of drug interaction), silver + biocide [29] | CDI (coefficient of drug interaction), silver + biocide [30] | CDI (coefficient of drug interaction), silver + biocide [31] | CDI (coefficient of drug interaction), silver + biocide [32] | CDI (coefficient of drug interaction), silver + biocide [33] | CDI (coefficient of drug interaction), silver + biocide [34]

O=C1OC(CN2CCOCC2)CN1/N=C/c1ccc([N+](=O)[O-])o1 (stereo not shown) [furaltadone]
Tox: CDI (coefficient of drug interaction) [16]

Cc1onc(-c2ccccc2)c1C(=O)N[C@@H]1C(=O)N2[C@@H]1SC(C)(C)[C@@H]2C(=O)O [oxacillin]
Tox: CDI (coefficient of drug interaction) [1] | CDI (coefficient of drug interaction) [2] | CDI (coefficient of drug interaction) [3] | CDI (coefficient of drug interaction) [4] | CDI (coefficient of drug interaction) [5] | CDI (coefficient of drug interaction) [6] | CDI (coefficient of drug interaction), gold + biocide [7] | CDI (coefficient of drug interaction), gold + biocide [8] | CDI (coefficient of drug interaction), gold + biocide [9] | CDI [10] | CDI [11] | CDI [12] | CDI [13] | CDI [14] | CDI [15]

Cc1onc(-c2ccccc2Cl)c1C(=O)N[C@@H]1C(=O)N2[C@@H]1SC(C)(C)[C@@H]2C(=O)O [cloxacillin]
Tox: CDI (coefficient of drug interaction) [2] | CDI (coefficient of drug interaction) [3] | CDI (coefficient of drug interaction) [4] | CDI (coefficient of drug interaction) [6] | CDI (coefficient of drug interaction), gold + biocide [7] | CDI (coefficient of drug interaction), gold + biocide [8] | CDI (coefficient of drug interaction), gold + biocide [9] | CDI [10] | CDI [11] | CDI [12] | CDI [13] | CDI [14] | CDI [15]

N=C(N)N [guanidine hydrochloride]
Tox: CDI (coefficient of drug interaction), copper mixed with biocide [18] | CDI (coefficient of drug interaction), copper mixed with biocide [20] | CDI (coefficient of drug interaction), copper mixed with biocide [22] | CDI (coefficient of drug interaction) [24] | CDI (coefficient of drug interaction) [26] | CDI (coefficient of drug interaction) [28] | CDI (coefficient of drug interaction), silver + biocide [30] | CDI (coefficient of drug interaction), silver + biocide [32] | CDI (coefficient of drug interaction), silver + biocide [34]
